# Test results taken from publication PMC5447021, “TNF Lectin-Like Domain Restores Epithelial Sodium Channel Function in Frameshift Mutants Associated with Pseudohypoaldosteronism Type 1B” (Frontiers in Immunology, 2017).
# Assays:
# [1] = system: αF435fs (co-expressed with βγ-ENaC); test: Whole-cell patch clamp, αF435fs + WT βγ; format: cell-based, human; conditions: read-out: EC50, solnatide, HEK-293, whole-cell, -100 mV, n = 7
# Procedure: (§1) Point mutations of α-, β-, γ- and δ-hENaC and PHA1B frameshift mutations of α-hENaC were prepared with the QuikChange Lightning Site-Directed Mutagenesis Kit (Agilent Technologies, CA, USA). Mutagenic primers were designed individually with the Primer Design Program provided on the producer’s website or for the frameshift mutations the same base changes as reported in patients (see Table 2) were performed. Primers were ordered from Sigma-Aldrich, Vienna, Austria.
# (§2) HEK-293 cells were transfected 1 day after cell seeding using X-tremeGENE HP DNA transfection reagent (Roche Diagnostics, Mannheim, Germany) according to the manufacturer’s protocol. A set of WT or mutant αβγ- or δβγ-hENaC, or α-, β-, γ-, or δ-hENaC alone was used, and the ratio of DNA to transfection reagent was 1:3. The expression was highest 48–72 h after transfection.
# (§3) Electrophysiological experiments were performed as described in detail by Shabbir et al. ([16]). […] Currents were recorded with the patch clamp method in the whole-cell mode. The chamber contained 1 ml of the bath solution of the following composition (in mM): 145 NaCl, 2.7 KCl, 1.8 CaCl2, 2 MgCl2, 5.5 glucose, and 10 HEPES, adjusted to pH 7.4 with 1 M NaOH solution. Micropipettes were pulled from thin-walled borosilicate glass capillaries (Harvard Apparatus, Holliston, MA, USA) with a DMZ Zeitz Puller to obtain electrode resistances ranging from 2 to 5 MΩ. […]
# [2] = system: αR438fs (co-expressed with βγ-ENaC); test: Whole-cell patch clamp, αR438fs + WT βγ; format: cell-based, human; conditions: read-out: EC50, solnatide, HEK-293, whole-cell, -100 mV, n = 7
# Procedure: as §1, §2, §3
# α-ENaC (WT αβγ-ENaC) = test: Membrane abundance of WT α-ENaC (cell surface biotinylation, Western blot); format: cell-based, human; conditions: HEK-293, 200 nM solnatide, relative to WT control (=1), p < 0.001 vs control
# Procedure: (§4) Cell surface biotinylation was performed as previously described ([26]). In brief, A549 cells or transiently transfected HEK-293 cells were grown in 10 cm dishes in 37°C, 5% CO2 incubator in DMEM medium supplemented with 5% FBS. […] Medium was aspirated, and then cells were washed twice with 10 ml ice-cold phosphate-buffered saline (PBS), covered with 2.5 mg EZ-Link Sulfo-NHS-SS-Biotin (Thermo Scientific, Rockford, USA), dissolved in 10 ml ice-cold PBS, and incubated at 4°C with gentle agitation for 30 min. Fifty milliliters of quenching solution were added to cells; then cells were scraped in solution and transferred to fresh 50 ml tube. Cell suspension was centrifuged at 500 × g for 3 min. Supernatant was discarded, and 5 ml of Tris-buffered saline (TBS) was added to the cell pellet. The cell pellet was resuspended and centrifuged at 500 × g for 3 min. Supernatant was discarded and cell pellet was resuspended in lysis buffer containing protease inhibitor cocktail (10 µM pepstatin A, 10 µM phenylmethylsulfonyl fluoride, and 10 µM leupeptin) and transferred to fresh 1.5 ml centrifuge tube. Cell pellet was then homogenized on ice by ultrasonication using 1 s bursts and incubated on ice for at least 30 min. Intact cells and nuclei were pelleted by centrifugation at 10,000 × g for 2 min under cooling conditions. […] Exposed films were scanned and quantified using ImageJ (NIH, MD, USA).
# αE272fs = test: Membrane abundance of αE272fs; format: cell-based, human; conditions: 200 nM, relative to WT control (=1), own control 0.35 ± 0.06, p < 0.001 vs control
# Procedure: as §4, with “USA). […]” for “USA).”
# δD522Xβγ-ENaC = conditions: cited from earlier work
# δ-ENaC = conditions: HEK-293, 5 and 10 min; returns after 1 h; cited from earlier work
structure (smiles),measurement,setting,value
"C[C@@H]1NC(=O)CNC(=O)[C@H](CCC(=O)O)NC(=O)[C@@H]2CCCN2C(=O)[C@H]([C@@H](C)O)NC(=O)[C@H](CCC(=O)O)NC(=O)[C@H](CCCNC(=N)N)NC(=O)[C@H](CCC(N)=O)NC(=O)CNC(=O)[C@@H](N)CSSC[C@@H](C(=O)O)NC(=O)[C@H](Cc2ccc(O)cc2)NC(=O)[C@H](Cc2c[nH]c3ccccc23)NC(=O)[C@@H]2CCCN2C(=O)[C@H](CCCCN)NC(=O)[C@H](C)NC(=O)[C@H](CCC(=O)O)NC1=O [solnatide, L-cysteine, L-cysteinylglycyl-L-glutaminyl-L-arginyl-L-α-glutamyl-L-threonyl-L-prolyl-L-α-glutamylglycyl-L-alanyl-L-α-glutamyl-L-alanyl-L-lysyl-L-prolyl-L-tryptophyl-L-tyrosyl-, cyclic (1→17)-disulfide]",EC50,[1],64.6 ± 8.7 nM
same,EC50,[2],56.6 ± 8 nM
same,"Membrane abundance, solnatide 5 min","α-ENaC (WT αβγ-ENaC); 5 min, normalized to β-actin",1.48 ± 0.12
same,"Membrane abundance, solnatide 10 min",α-ENaC (WT αβγ-ENaC); 10 min,1.40 ± 0.09
same,"Membrane abundance, solnatide 5 min",αE272fs; 5 min,0.72 ± 0.03
same,"Membrane abundance, solnatide 10 min",αE272fs; 10 min,0.64 ± 0.05
same,Effect of solnatide on amiloride-sensitive current,δD522Xβγ-ENaC,a residual albeit non-significant increase in the amiloride-sensitive current
same,"Current increase, glycosylation sites removed",δD522Xβγ-ENaC; glycosylation sites in extracellular loop removed by mutation,small increase was not seen
same,"Membrane abundance, solnatide",δ-ENaC,significant statistically
